Measurements: PMC12644596 (Scientific Reports, 2025)

Test: MTT test, normal cells, 24 h
Format: cell-based
Conditions: human, human dermal adult fibroblasts (HDFa)

In the case of `O=[N+]([O-])c1ccc(NCCCCN=C=S)c2nonc12` [NBDC4NCS, N-(4-isothiocyanatobutyl)-7-nitro-2,1,3-benzoxadiazol-4-amine], the viability at 24 h is reported as roughly 70%.
